{
  "source": "patent US20210252015A1",
  "about": "“CERTAIN (2S)-N-[(1S)-1-CYANO-2-PHENYLETHYL]-1,4-OXAZEPANE-2-CARBOXAMIDES FOR TREATING INFLAMMATORY BOWEL DISEASE” (Insmed Incorporated, priority 2018, published 2021)",
  "tested_on": "neutrophil elastase (NE)",
  "assay": "Bone marrow neutrophil elastase (NE) activity in lysates from mice of Example 1A",
  "type": "in vivo, C57BL/6 mice",
  "conditions": "vs vehicle treated control group",
  "method": "Following euthanasia, bone marrow (from both femurs and tibias) were collected, lysed, and then snap frozen. The frozen tissue was stored at −80° C.\nBone Marrow Neutrophil Activity: The ability of INS1007 to reduce neutrophil activation in DSS-induced colitis in C57BL/6 mice was evaluated. The neutrophil activity of bone marrow extracts taken from the euthanized mice of Example 1A was observed.\nAll animals from Example 1A had both femurs and tibias removed and bone marrow was aspirated out with ice-cold using Roswell Park Memorial Institute (RPMI) buffer. Cell pellets were collected after red blood cell lysis and wash with PBS. […]\nFor neutrophil elastase (NE) activity assay, bone marrow cell lysates were added to 96-well black plate and incubated for 15 minutes in the presence of DMSO or NE inhibitor (Abcam, Cat #ab142154). […] The resulting fluorescence was measured at 350 nm excitation and 450 nm emission in a kinetic mode by reading every 5 minutes for up to 3 hours at 37° C. The fluorescence was read using a BioTek Synergy plate reader. The reaction rate was calculated with the initial slopes of the linear range and a standard curve for the natural mouse elastase amounts were plotted against their slopes. The net NE activity (in the unit of natural mouse elastase amount) by subtracting the NE inhibitor control wells from non-inhibited well were calculated based on the standard curve.",
  "data": [
    {"compound": "Cn1c(=O)oc2ccc(-c3ccc(C[C@@H](C#N)NC(=O)[C@@H]4CNCCCO4)cc3)cc21", "note": "[INS1007, (2S)—N-{(1S)-1-cyano-2-[4-(3-methyl-2-oxo-2,3-dihydro-1,3-benzoxazol-5-yl)phenyl]ethyl}-1,4-oxazepane-2-carboxamide]", "values": [
      {"measurement": "bone marrow neutrophil activity (NE activity)", "setting": "INS1007 1 mg/kg PO BID", "result": "significantly reduced"},
      {"measurement": "bone marrow neutrophil activity (NE activity)", "setting": "INS1007 10 mg/kg PO BID", "result": "significantly reduced"}
    ]}
  ]
}
